Test results as given in the NIST ThermoML archive (doi:10.1021/acs.jced.7b00106).
Where “and” joins values, the source holds several entries; their conditions need not be identical. Equal values may be shown once. ± gives the expanded uncertainty stated by the source.

Conditions: Hot wire method

For `FC(F)(F)/C=C/Cl` [(E)-1-chloro-3,3,3-trifluoroprop-1-ene], the thermal conductivity (401.56 K, 1795 kPa, Fluid (supercritical or subcritical phases)) was 0.02087 ± 0.0047 W/m/K, the thermal conductivity (401.57 K, 1795 kPa, Fluid (supercritical or subcritical phases)) was 0.02094 ± 0.0044 W/m/K and the thermal conductivity (401.58 K, 1514 kPa, Fluid (supercritical or subcritical phases)) was 0.01985 ± 0.0017 W/m/K. It also gave a thermal conductivity (401.58 K, 1515 kPa, Fluid (supercritical or subcritical phases)) of 0.01989 ± 0.001 W/m/K, a thermal conductivity (401.61 K, 1407 kPa, Fluid (supercritical or subcritical phases)) of 0.01962 ± 0.0028 W/m/K and a thermal conductivity (401.62 K, 1407 kPa, Fluid (supercritical or subcritical phases)) of 0.01968 ± 0.0021 W/m/K. The thermal conductivity (401.65 K, 1306 kPa, Fluid (supercritical or subcritical phases)) was 0.01952 ± 0.00084 W/m/K, the thermal conductivity (401.65 K, 1307 kPa, Fluid (supercritical or subcritical phases)) was 0.01951 ± 0.00081 W/m/K and the thermal conductivity (401.67 K, 1716 kPa, Fluid (supercritical or subcritical phases)) was 0.02063 ± 0.006 W/m/K. The thermal conductivity (401.69 K, 1203 kPa, Fluid (supercritical or subcritical phases)) was 0.01937 ± 0.0014 W/m/K and 0.01933 ± 0.0018 W/m/K, the thermal conductivity (401.71 K, 1106 kPa, Fluid (supercritical or subcritical phases)) was 0.01926 ± 0.0029 W/m/K and the thermal conductivity (401.72 K, 1106 kPa, Fluid (supercritical or subcritical phases)) was 0.01925 ± 0.003 W/m/K. For the same compound, the thermal conductivity (401.72 K, 1623 kPa, Fluid (supercritical or subcritical phases)) was 0.0203 ± 0.0028 W/m/K, the thermal conductivity (401.73 K, 1623 kPa, Fluid (supercritical or subcritical phases)) was 0.02026 ± 0.0028 W/m/K and the thermal conductivity (401.75 K, 847 kPa, Fluid (supercritical or subcritical phases)) was 0.01914 ± 0.0014 W/m/K. The thermal conductivity (401.75 K, 1000 kPa, Fluid (supercritical or subcritical phases)) was 0.01916 ± 0.001 W/m/K, the thermal conductivity (401.75 K, 1001 kPa, Fluid (supercritical or subcritical phases)) was 0.01919 ± 0.001 W/m/K and the thermal conductivity (401.76 K, 846 kPa, Fluid (supercritical or subcritical phases)) was 0.01915 ± 0.001 W/m/K. It also gave a thermal conductivity (401.76 K, 1795 kPa, Fluid (supercritical or subcritical phases)) of 0.02102 ± 0.0052 W/m/K, a thermal conductivity (401.76 K, 1796 kPa, Fluid (supercritical or subcritical phases)) of 0.02099 ± 0.0052 W/m/K and a thermal conductivity (401.78 K, 1514 kPa, Fluid (supercritical or subcritical phases)) of 0.0199 ± 0.0027 W/m/K. For the same compound, the thermal conductivity (401.79 K, 1515 kPa, Fluid (supercritical or subcritical phases)) was 0.01993 ± 0.0026 W/m/K, the thermal conductivity (401.82 K, 1408 kPa, Fluid (supercritical or subcritical phases)) was 0.01967 ± 0.0031 W/m/K and the thermal conductivity (401.83 K, 1407 kPa, Fluid (supercritical or subcritical phases)) was 0.01973 ± 0.0021 W/m/K. It also gave a thermal conductivity (401.84 K, 675 kPa, Fluid (supercritical or subcritical phases)) of 0.01911 ± 0.003 W/m/K, a thermal conductivity (401.86 K, 1307 kPa, Fluid (supercritical or subcritical phases)) of 0.01952 ± 0.0024 W/m/K and a thermal conductivity (401.87 K, 1716 kPa, Fluid (supercritical or subcritical phases)) of 0.02077 ± 0.0057 W/m/K. It also gave a thermal conductivity (401.88 K, 1715 kPa, Fluid (supercritical or subcritical phases)) of 0.02074 ± 0.0056 W/m/K, a thermal conductivity (401.91 K, 1202 kPa, Fluid (supercritical or subcritical phases)) of 0.01943 ± 0.0018 W/m/K and a thermal conductivity (401.91 K, 1203 kPa, Fluid (supercritical or subcritical phases)) of 0.01941 ± 0.0018 W/m/K. It also gave a thermal conductivity (401.93 K, 1622 kPa, Fluid (supercritical or subcritical phases)) of 0.02034 ± 0.0033 W/m/K, a thermal conductivity (401.94 K, 1105 kPa, Fluid (supercritical or subcritical phases)) of 0.01929 ± 0.0015 W/m/K and a thermal conductivity (401.94 K, 1106 kPa, Fluid (supercritical or subcritical phases)) of 0.01933 ± 0.0015 W/m/K. The thermal conductivity (401.94 K, 1624 kPa, Fluid (supercritical or subcritical phases)) was 0.02037 ± 0.0036 W/m/K, the thermal conductivity (401.96 K, 1796 kPa, Fluid (supercritical or subcritical phases)) was 0.02117 ± 0.0056 W/m/K and the thermal conductivity (401.97 K, 1000 kPa, Fluid (supercritical or subcritical phases)) was 0.01921 ± 0.0017 W/m/K. The thermal conductivity (401.97 K, 1001 kPa, Fluid (supercritical or subcritical phases)) was 0.01922 ± 0.0013 W/m/K, the thermal conductivity (401.97 K, 1796 kPa, Fluid (supercritical or subcritical phases)) was 0.02115 ± 0.0074 W/m/K and the thermal conductivity (401.99 K, 847 kPa, Fluid (supercritical or subcritical phases)) was 0.01917 ± 0.002 W/m/K. The thermal conductivity (402 K, 845 kPa, Fluid (supercritical or subcritical phases)) was 0.01916 ± 0.001 W/m/K, the thermal conductivity (402 K, 1514 kPa, Fluid (supercritical or subcritical phases)) was 0.01998 ± 0.0041 W/m/K and 0.02002 ± 0.0041 W/m/K and the thermal conductivity (402.04 K, 1407 kPa, Fluid (supercritical or subcritical phases)) was 0.01972 ± 0.0032 W/m/K. The thermal conductivity (402.04 K, 1408 kPa, Fluid (supercritical or subcritical phases)) was 0.01978 ± 0.0031 W/m/K, the thermal conductivity (402.07 K, 1716 kPa, Fluid (supercritical or subcritical phases)) was 0.02086 ± 0.0052 W/m/K and 0.02091 ± 0.0052 W/m/K and the thermal conductivity (402.09 K, 674 kPa, Fluid (supercritical or subcritical phases)) was 0.0192 ± 0.0015 W/m/K. The thermal conductivity (402.09 K, 1306 kPa, Fluid (supercritical or subcritical phases)) was 0.01958 ± 0.0042 W/m/K, the thermal conductivity (402.09 K, 1307 kPa, Fluid (supercritical or subcritical phases)) was 0.01963 ± 0.0042 W/m/K and the thermal conductivity (402.12 K, 33574 kPa, Liquid) was 0.0762 ± 0.0032 W/m/K. The thermal conductivity (402.13 K, 1203 kPa, Fluid (supercritical or subcritical phases)) was 0.01947 ± 0.0017 W/m/K, the thermal conductivity (402.14 K, 1203 kPa, Fluid (supercritical or subcritical phases)) was 0.01946 ± 0.0017 W/m/K and the thermal conductivity (402.15 K, 1623 kPa, Fluid (supercritical or subcritical phases)) was 0.02048 ± 0.0047 W/m/K. For the same compound, the thermal conductivity (402.17 K, 1105 kPa, Fluid (supercritical or subcritical phases)) was 0.01933 ± 0.0025 W/m/K and 0.01934 ± 0.0025 W/m/K, the thermal conductivity (402.19 K, 1796 kPa, Fluid (supercritical or subcritical phases)) was 0.02136 ± 0.0069 W/m/K and 0.02138 ± 0.0076 W/m/K and the thermal conductivity (402.2 K, 24990 kPa, Liquid) was 0.07177 ± 0.0024 W/m/K. For the same compound, the thermal conductivity (402.2 K, 25009 kPa, Liquid) was 0.07171 ± 0.00081 W/m/K, the thermal conductivity (402.21 K, 1000 kPa, Fluid (supercritical or subcritical phases)) was 0.01925 ± 0.0012 W/m/K and the thermal conductivity (402.22 K, 1851 kPa, Liquid) was 0.05439 ± 0.0025 W/m/K. The thermal conductivity (402.22 K, 1852 kPa, Liquid) was 0.05442 ± 0.0017 W/m/K, the thermal conductivity (402.23 K, 846 kPa, Fluid (supercritical or subcritical phases)) was 0.01918 ± 0.0016 W/m/K and the thermal conductivity (402.23 K, 1515 kPa, Fluid (supercritical or subcritical phases)) was 0.02013 ± 0.0046 W/m/K and 0.02014 ± 0.0046 W/m/K. For the same compound, the thermal conductivity (402.24 K, 847 kPa, Fluid (supercritical or subcritical phases)) was 0.01925 ± 0.0016 W/m/K, the thermal conductivity (402.25 K, 13371 kPa, Liquid) was 0.06482 ± 0.004 W/m/K and the thermal conductivity (402.26 K, 13368 kPa, Liquid) was 0.06479 ± 0.0024 W/m/K. For the same compound, the thermal conductivity (402.27 K, 1408 kPa, Fluid (supercritical or subcritical phases)) was 0.01984 ± 0.0029 W/m/K and 0.01988 ± 0.0029 W/m/K, the thermal conductivity (402.29 K, 21647 kPa, Liquid) was 0.06986 ± 0.00079 W/m/K and the thermal conductivity (402.29 K, 21648 kPa, Liquid) was 0.06987 ± 0.00078 W/m/K. For the same compound, the thermal conductivity (402.31 K, 1715 kPa, Fluid (supercritical or subcritical phases)) was 0.02112 ± 0.0092 W/m/K and 0.02105 ± 0.0066 W/m/K, the thermal conductivity (402.31 K, 28736 kPa, Liquid) was 0.07366 ± 0.0013 W/m/K and the thermal conductivity (402.31 K, 28755 kPa, Liquid) was 0.0737 ± 0.0012 W/m/K. For the same compound, the thermal conductivity (402.32 K, 5982 kPa, Liquid) was 0.0589 ± 0.00075 W/m/K and 0.05892 ± 0.0011 W/m/K, the thermal conductivity (402.32 K, 11080 kPa, Liquid) was 0.06308 ± 0.0019 W/m/K and the thermal conductivity (402.32 K, 11097 kPa, Liquid) was 0.06313 ± 0.0013 W/m/K. For the same compound, the thermal conductivity (402.33 K, 1306 kPa, Fluid (supercritical or subcritical phases)) was 0.01962 ± 0.003 W/m/K and 0.01976 ± 0.003 W/m/K.
